US9108944B2, “Androgen receptor modulators and uses thereof” (ARAGON PHARMACEUTICALS, INC., priority 2010, dated 2015)

Experiments:
AR-VP16 [1] = target: T1, AR-VP16 (Homo sapiens, UniProt P10275); assay: AR-VP16 DNA Binding Assay, agonist mode (HepG2 cells); format: cell-based; settings: Emax >20x DMSO control = agonist
T1 sequence (P10275 560-920 limits assumed): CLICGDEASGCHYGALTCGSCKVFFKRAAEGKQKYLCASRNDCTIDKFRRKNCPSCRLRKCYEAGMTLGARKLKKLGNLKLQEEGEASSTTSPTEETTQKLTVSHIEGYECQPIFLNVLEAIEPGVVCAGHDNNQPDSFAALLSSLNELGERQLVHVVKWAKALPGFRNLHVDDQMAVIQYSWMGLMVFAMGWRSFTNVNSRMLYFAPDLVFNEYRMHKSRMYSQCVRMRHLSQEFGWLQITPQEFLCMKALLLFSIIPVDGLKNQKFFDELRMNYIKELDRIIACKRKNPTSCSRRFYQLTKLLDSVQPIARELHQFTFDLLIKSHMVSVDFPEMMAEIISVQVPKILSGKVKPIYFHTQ

AR-VP16 [2] = target: T1, AR-VP16; assay: AR-VP16 DNA Binding Assay, antagonist mode (HepG2 cells, 0.1 nM R1881); format: cell-based
Outline: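 Transfected HepG2 cells expressing AR-VP16 received serially diluted compound in charcoal-stripped-serum RPMI the day after transfection, with 0.1 nM R1881 (final) added only for antagonist testing. After 48 h, cells were lysed for measurement.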

SMILES | ARVP16 DNA Binding Assay (Agonist mode): Agonist? (AR-VP16 [1]) | IC50 (AR-VP16 [2]) [nM]
N#Cc1ncc(N2C(=O)C3(CCC3)N(c3ccccc3CO)C2=S)cc1C(F)(F)F [Compound 68, 5-(5-(2-(Hydroxymethyl)phenyl)-8-oxo-6-thioxo-5,7-diazaspiro[3.4]octan-7-yl)-3-(trifluoromethyl)picolinonitrile] | No (Agonist defined as a compound whose Emax in the ARVP16 DNA Binding Assay (Agonist mode) is >20x DMSO control) | > 1000
N#Cc1ncc(N2C(=O)C3(CCC3)N(c3ccc(CO)cc3)C2=S)cc1C(F)(F)F [Compound 69, 5-(5-(4-(Hydroxymethyl)phenyl)-8-oxo-6-thioxo-5,7-diazaspiro[3.4]octan-7-yl)-3-(trifluoromethyl)picolinonitrile] | No (Agonist defined as a compound whose Emax in the ARVP16 DNA Binding Assay (Agonist mode) is >20x DMSO control) | < 1000
COC(=O)c1ccc(N2C(=S)N(c3cnc(C#N)c(C)c3)C(=O)C23CCC3)c(F)c1 [Compound 71, Methyl 4-(7-(6-cyano-5-methylpyridin-3-yl)-8-oxo-6-thioxo-5,7-diazaspiro[3.4]octan-5-yl)-3-fluorobenzoate] | No (Agonist defined as a compound whose Emax in the ARVP16 DNA Binding Assay (Agonist mode) is >20x DMSO control) | > 1000
N#Cc1ncc(N2C(=O)C3(CCC3)N(c3cccc(F)c3F)C2=S)cc1C(F)(F)F [Compound 72, 5-(5-(2,3-Difluorophenyl)-8-oxo-6-thioxo-5,7-diazaspiro[3.4]octan-7-yl)-3-(trifluoromethyl)picolinonitrile] | Yes (Agonist defined as a compound whose Emax in the ARVP16 DNA Binding Assay (Agonist mode) is >20x DMSO control) | < 1000
N#Cc1ncc(N2C(=O)C3(CCC3)N(c3c(F)cccc3F)C2=S)cc1C(F)(F)F [Compound 73, 5-(5-(2,6-Difluorophenyl)-8-oxo-6-thioxo-5,7-diazaspiro[3.4]octan-7-yl)-3-(trifluoromethyl)picolinonitrile] | Yes (Agonist defined as a compound whose Emax in the ARVP16 DNA Binding Assay (Agonist mode) is >20x DMSO control) | < 1000
N#Cc1ncc(N2C(=O)C3(CCC3)N(c3ccc(F)cc3F)C2=S)cc1C(F)(F)F [Compound 76, 5-(5-(2,4-Difluorophenyl)-8-oxo-6-thioxo-5,7-diazaspiro[3.4]octan-7-yl)-3-(trifluoromethyl)picolinonitrile] | Yes (Agonist defined as a compound whose Emax in the ARVP16 DNA Binding Assay (Agonist mode) is >20x DMSO control) | < 1000
Cc1cc(N2C(=O)C3(CCC3)N(c3ccc(O)cc3)C2=S)cnc1C#N [Compound 77, 5-(5-(4-hydroxyphenyl)-8-oxo-6-thioxo-5,7-diazaspiro[3.4]octan-7-yl)-3-methylpicolinonitrile] | No (Agonist defined as a compound whose Emax in the ARVP16 DNA Binding Assay (Agonist mode) is >20x DMSO control) | > 1000
CNC(=O)c1ccc(N2C(=S)N(c3cnc(C#N)c(C)c3)C(=O)C23CCC3)cc1 [Compound 78, 4-(7-(6-Cyano-5-methylpyridin-3-yl)-8-oxo-6-thioxo-5,7-diazaspiro[3.4]octan-5-yl)-N-methylbenzamide] | No (Agonist defined as a compound whose Emax in the ARVP16 DNA Binding Assay (Agonist mode) is >20x DMSO control) | > 1000
N#Cc1ncc(N2C(=O)C3(CCC3)N(c3ccc(S(N)(=O)=O)cc3)C2=S)cc1C(F)(F)F [Compound 81, 4-(7-(6-cyano-5-(trifluoromethyl)pyridin-3-yl)-8-oxo-6-thioxo-5,7-diazaspiro-[3.4]octan-5-yl)benzenesulfonamide] | No (Agonist defined as a compound whose Emax in the ARVP16 DNA Binding Assay (Agonist mode) is >20x DMSO control) | > 1000
CNC(=O)c1ccc(N2C(=S)N(c3ccc(C#N)n4nccc34)C(=O)C23CCC3)cc1F [Compound 83, 4-(7-(7-Cyanopyrazolo[1,5-a]pyridin-4-yl)-8-oxo-6-thioxo-5,7-diazaspiro[3.4]octan-5-yl)-2-fluoro-N-methylbenzamide] | No (Agonist defined as a compound whose Emax in the ARVP16 DNA Binding Assay (Agonist mode) is >20x DMSO control) | > 1000
Cc1ccc(CN2C(=S)N(c3cnc(C#N)c(C(F)(F)F)c3)C(=O)C23CCC3)cc1 [Compound 84, 5-(5-(4-Methylbenzyl)-8-oxo-6-thioxo-5,7-diazaspiro[3.4]octan-7-yl)-3-(trifluoromethyl)picolinonitrile] | Yes (Agonist defined as a compound whose Emax in the ARVP16 DNA Binding Assay (Agonist mode) is >20x DMSO control) | < 1000
Cc1ccc(CCN2C(=S)N(c3cnc(C#N)c(C(F)(F)F)c3)C(=O)C23CCC3)cc1 [Compound 85, 5-(5-(4-Methylphenethyl)-8-oxo-6-thioxo-5,7-diazaspiro[3.4]octan-7-yl)-3-(trifluoromethyl)picolinonitrile] | Yes (Agonist defined as a compound whose Emax in the ARVP16 DNA Binding Assay (Agonist mode) is >20x DMSO control) | < 1000
N#Cc1ncc(N2C(=O)C3(CCC3)N(c3ccc(CCCO)cc3)C2=S)cc1C(F)(F)F [Compound 86, 5-(5-(4-(3-hydroxypropyl)phenyl)-8-oxo-6-thioxo-5,7-diazaspiro[3.4]octan-7-yl)-3-(trifluoromethyl)picolinonitrile] | No (Agonist defined as a compound whose Emax in the ARVP16 DNA Binding Assay (Agonist mode) is >20x DMSO control) | < 1000
N#Cc1ncc(N2C(=O)C3(CCC3)N(c3ccc4cn[nH]c4c3)C2=S)cc1C(F)(F)F [Compound 88, 5-(5-(1H-Indazol-6-yl)-8-oxo-6-thioxo-5,7-diazaspiro[3.4]octan-7-yl)-3-(trifluoromethyl)picolinonitrile] | No (Agonist defined as a compound whose Emax in the ARVP16 DNA Binding Assay (Agonist mode) is >20x DMSO control) | < 1000
CNC(=O)c1ccc(N2C(=S)N(c3cnc(C#N)c(C(F)(F)F)c3)C(=O)C23CCC3)c(F)c1 [Compound 89, 4-(7-(6-Cyano-5-(trifluoromethyl)pyridin-3-yl)-8-oxo-6-thioxo-5,7-diazaspiro[3.4]octan-5-yl)-3-fluoro-N-methylbenzamide] | No (Agonist defined as a compound whose Emax in the ARVP16 DNA Binding Assay (Agonist mode) is >20x DMSO control) | < 1000
CN1CCN(c2ccc(N3C(=S)N(c4cnc(C#N)c(C(F)(F)F)c4)C(=O)C34CCC4)cc2)CC1 [Compound 90, 5-(5-(4-(4-Methylpiperazin-1-yl)phenyl)-8-oxo-6-thioxo-5,7-diazaspiro[3.4]octan-7-yl)-3-(trifluoromethyl)picolinonitrile] | No (Agonist defined as a compound whose Emax in the ARVP16 DNA Binding Assay (Agonist mode) is >20x DMSO control) | > 1000
N#Cc1ncc(N2C(=O)C3(CCC3)N(c3ccc(S(=O)(=O)CCc4ccncc4)cc3)C2=S)cc1C(F)(F)F [Compound 91, 5-(8-Oxo-5-(4-((2-(pyridin-4-yl)ethyl)sulfonyl)phenyl)-6-thioxo-5,7-diazaspiro[3.4]octan-7-yl)-3-(trifluoromethyl)picolinonitrile] | No (Agonist defined as a compound whose Emax in the ARVP16 DNA Binding Assay (Agonist mode) is >20x DMSO control) | > 1000
CN1CCN(Cc2ccc(N3C(=S)N(c4cnc(C#N)c(C(F)(F)F)c4)C(=O)C34CCC4)cc2)CC1 [Compound 93, 5-(5-(4-((4-Methylpiperazin-1-yl)methyl)phenyl)-8-oxo-6-thioxo-5,7-diazaspiro[3.4]octan-7-yl)-3-(trifluoromethyl)picolinonitrile] | No (Agonist defined as a compound whose Emax in the ARVP16 DNA Binding Assay (Agonist mode) is >20x DMSO control) | > 1000
Cc1ccc(-c2ccc(N3C(=S)N(c4cnc(C#N)c(C)c4)C(=O)C34CCC4)cc2)cn1 [Compound 96, 3-Methyl-5-(5-(4-(6-methylpyridin-3-yl)phenyl)-8-oxo-6-thioxo-5,7-diazaspiro[3.4]octan-7-yl)picolinonitrile] | No (Agonist defined as a compound whose Emax in the ARVP16 DNA Binding Assay (Agonist mode) is >20x DMSO control) | < 1000
Cc1ccncc1-c1ccc(N2C(=S)N(c3cnc(C#N)c(C)c3)C(=O)C23CCC3)cc1 [Compound 97, 3-Methyl-5-(5-(4-(4-methylpyridin-3-yl)phenyl)-8-oxo-6-thioxo-5,7-diazaspiro[3.4]octan-7-yl)picolinonitrile] | Yes (Agonist defined as a compound whose Emax in the ARVP16 DNA Binding Assay (Agonist mode) is >20x DMSO control) | < 1000
Cc1cc(N2C(=O)C3(CCC3)N(c3ccc(-c4cccnc4C)cc3)C2=S)cnc1C#N [Compound 99, 3-Methyl-5-(5-(4-(2-methylpyridin-3-yl)phenyl)-8-oxo-6-thioxo-5,7-diazaspiro[3.4]octan-7-yl)picolinonitrile] | Yes (Agonist defined as a compound whose Emax in the ARVP16 DNA Binding Assay (Agonist mode) is >20x DMSO control) | < 1000
